Data reported in patent US20080145424A1, “Sustained release L-arginine formulations and methods of manufacture and use” (Enos Phramaceuticals, Inc., priority 2002, published 2008).

Tested on: total infarct volume
Assay: Dose optimization of combination of simvastatin and L-arginine, infarct volume in mice
Assay type: in vivo
Details: mice injected with varying levels of simvastatin and L-arginine; predicted by statistical analysis

CCC(C)(C)C(=O)O[C@H]1C[C@@H](C)C=C2C=C[C@H](C)[C@H](CC[C@@H]3C[C@@H](O)CC(=O)O3)[C@H]21 [simvastatin]
optimal range of the combination: 1.2 to 1.4 mg/kg
